Experimental data published in a melting point compilation (Tetko et al.; mined from patent text by program, amines drawn as free bases though some values may be those of a salt).

| SMILES | melting point |
| --- | --- |
| C#CCn1nc(-c2ccc(S(C)(=O)=O)cc2)c(-c2ccc(F)cc2)c1C(F)(F)F | 158 to 160 °C |
| Cc1ccnc2c1C(=O)CC(c1ccsc1)C2 (configuration not stated) | 92 to 93 °C |
| CNS(=O)(=O)c1cc(S(=O)(=O)Cl)c(Cl)cc1N | 153 to 155 °C |
| CC(CCCCCC(C)NC(=O)c1ccc(OC(F)(F)F)cc1)NC(=O)c1ccc(OC(F)(F)F)cc1 (configuration not stated) | 156 to 160 °C |
| COc1cccc(OC)c1-c1cc(C(=O)NC2(C(=O)O)C3CC4CC(C3)CC2C4)nn1-c1cccc2ncccc12 (configuration not stated) | > 260 °C |
| COC(=O)C(Cc1ccc(O)cc1)c1cc2cc(C#N)ccc2o1 (configuration not stated) | 110 to 111 °C |
| COc1ccc(COc2ccc(NC(C)=O)cc2C(=O)C=Cc2ccc(OCc3ccccc3)cc2)cc1 | 201 to 202 °C |
| COC(=O)Nc1ccccc1CSc1ncc(C(F)(F)F)cc1Cl | 111 to 113 °C |
| O=C(c1ccccc1)c1cc([N+](=O)[O-])ccc1OCCO | 124 to 126 °C |
| O=C(CCc1ccccc1)N[C@H]1CCCN2CCC[C@@H](C(=O)O)N2C1=O | 198 to 202 °C |
| Oc1ncnc2c(F)ccc(F)c12 | 257 to 258 °C |
| CC(C)(C)NC(=O)c1ccc(Cl)cc1 | 136 to 137 °C |
| COc1ccc(-c2nc(Sc3ccc(Cl)cc3)cc(N3CCN(C)CC3)n2)cc1 | 143 to 145 °C |
| NS(=O)(=O)c1ccc(-c2cccc(-c3nc(-c4ccc(Cl)cc4Cl)cc(C(F)(F)F)n3)c2)s1 | 238 °C |
| COc1ccc(C(O)CNCCN)cc1 (configuration not stated) | 68 °C |
| CCOC(=O)C1CC(O)CN1C(=O)c1ccc(OC)cc1 (configuration not stated) | 64 °C |
| Cn1cc(CC#N)c2cc([N+](=O)[O-])ccc21 | 165 to 166 °C |
| COc1ccc(C(=O)NNC(=O)c2occ(-c3ccccc3)c2-c2ccccc2)cc1F | 110 to 112 °C |
| CC(=O)c1noc2ccccc12 | 30 to 32 °C |
| COC(=O)c1ncsc1S | 100 °C |
| O=C/C=C/c1cc2ccccc2[nH]1 | 203 to 204 °C |
| CCC1(CC)NS(=O)(=O)c2ccccc21 | 174 °C |
| O=c1[nH]c2c(n3ccnc13)Cc1ccccc1-2 | 350 °C |
| N#Cc1nn(-c2c(Cl)cc(C(F)(F)F)cc2Cl)c(N)c1-c1ccoc1C(F)(F)F | 155 to 157 °C |
| COC(F)(F)c1nc2nc(C)c(F)cc2cc1C(=O)C1C(=O)CCCC1=O | 143 to 146 °C |

| SMILES | melting point |
| --- | --- |
| CC(C)[C@@H]1C[C@@H]([C@H](C[C@H](C(=O)N2C(=O)OC[C@@H]2Cc2ccccc2)C(C)C)N=[N+]=[N-])OC1=O | 102 to 103 °C |
| N#Cc1ccc(OC2CCN(c3ccncc3)C2)cc1 (configuration not stated) | 182 to 185 °C |
| Cc1csc2c(C(=O)O)c(=O)c3cc4c(cc3n12)OCO4 | 303 to 305 °C |
| C=C(C)OC(=O)c1ccc(C(=O)OC(=C)C)cc1 | 72 to 73.5 °C |
| CCCCCC1CCC(C2CCC(CC(=O)CC)CC2)CC1 (configuration not stated) | 107 °C |
| COc1ccc(C2c3ccccc3C(c3ccc(OC)cc3)C2C(=O)O)cc1 (configuration not stated) | 192 to 193 °C |
| Cc1ccc2c(c1)OC1(O)c3ccccc3C(=O)C21O (configuration not stated) | 145 to 147 °C |
| O=C(O)CCCCCCCCCCCCCCCCCCCCCN1C(=O)C=CC1=O | 106 °C |
| CCOC=Cc1ncnc2c1ncn2Cc1ccccc1 | 114 to 115 °C |
| COc1ccc2c(c1OCc1ccccc1)CC(C(=O)O)N(C(=O)N(C)c1ccccc1)C2 (racemic) | 134 to 136 °C |
| Cc1ccc(S(=O)(=O)NC[C@H](C)NCc2c(Cl)ccc([N+](=O)[O-])c2Cl)cc1 | 85 to 88 °C |
| O=C(O)C1CCc2c(oc3cc(Cl)ccc23)C1 (configuration not stated) | 189 to 191 °C |
| CNc1ccc([N+](=O)[O-])cc1C(F)(F)F | 99 to 101 °C |
| CC(C)c1cc(C(C)C)c(C(O)C(=O)c2ccc(C(C)C)c(OS(N)(=O)=O)c2C(C)C)c(C(C)C)c1 (configuration not stated) | 96 to 101 °C |
| O=C1CSC=C(c2ccccc2)N1 | 150 to 155 °C |
| Nc1nc(-c2ccccc2)c(F)c(=O)[nH]1 | 276 to 278 °C |
| O=c1[nH]c2cc(Cl)cc(Cl)c2c(O)c1Sc1ccccc1Br | 285 to 288 °C |
| C=CCCC(C(=O)O)(C(=O)O)C(F)F | 80 to 81 °C |
| CCCN=C(Cc1ccccc1)N1CC2C(=O)CCC(c3ccccc3)(c3ccccc3)C2C1 (configuration not stated) | 86 °C |
| Cc1cc(C)c2c(c1C)OC(C)(C)C2 | 47 °C |
| N#Cc1cnc(N[C@@H]2CCCc3ccccc32)nc1N | 168 °C |
| Nc1nc2cccnc2c2c1nc(O)n2Cc1ccccc1 | > 250 °C |
| N#Cc1ccc(-c2cc(-c3ccc(C#N)cc3[N+](=O)[O-])on2)cc1 | 280 to 281 °C |
| O=C(Nc1ccccc1NS(=O)(=O)c1ccc(Cl)cc1)c1ccccc1 | 191 to 192 °C |
| O=C(O)c1cc(OCCCCCCc2cccc(OCc3ccccc3)c2OCc2ccccc2)ccc1O | 97 to 100 °C |

Results, then the compound that gave them:

| melting point | SMILES |
| --- | --- |
| 93 to 94 °C | CCOC(=O)C(Cc1c(Br)c(OC)c(OC)c(OC)c1OC)(C(=O)OCC)c1ccc(OCc2ccccc2)cc1 |
| 68 to 70 °C | O=C(O)CCCCCCCCN1NNN=C1C(c1ccccc1)c1ccccc1 |
| 96 to 98 °C | CCCCCNc1cccc2c1C(=O)N(C1(C)CCC(=O)NC1=O)C2=O (configuration not stated) |
| 128 °C | CS(=O)(=O)NCCCC(c1cc(F)ccc1F)S(=O)(=O)c1ccc(Cl)cc1 (configuration not stated) |
| 156 to 157 °C | CCc1nn2ccc3oc(C)cc3c2c1CC#N |
| 113 to 115 °C | Cc1cccc(Nc2cc(Cl)nc(SCC(=O)NN3CCCCC3)n2)c1C |
| 202 to 205 °C | Cn1cnc(COc2n[nH]c(C=O)c2-c2ccccc2)n1 |
| 78 to 80 °C | CCN1CCCC1CNC(=O)c1cc(OCC(F)(F)F)ccc1OCC(F)(F)F (configuration not stated) |
| 158 °C | CCc1nc2c(C)nc(C)cc2n1-c1ccc(CCOC(=O)NS(=O)(=O)c2ccc(C)cc2)cc1 |
| 200 to 202 °C | CCC(C)(C)c1cc(-c2ccc(CC3SC(N4CCOCC4)=NC3=O)s2)ccc1O (configuration not stated) |
| 174 to 176 °C | CCCc1nc(C(O)C(C)(C)C)c(C(N)=O)n1Cc1ccc(-c2ccccc2-c2nnn[nH]2)cc1 (configuration not stated) |
| 160 to 162 °C | CCOCc1nc2c(N)nc3cc(OCCCn4cccc4)ccc3c2n1CC(C)C |
| 95 to 96 °C | CCOC(=O)COc1cc(F)c(-c2nn(C)c(C(F)(F)F)c2Cl)cc1[N+](=O)[O-] |
| 246 to 248 °C | CCNc1ccc2c(c1)CN(c1cc3c(cc1F)c(=O)c(C(=O)O)cn3CC)C2 |
| 180 to 183 °C | CC(=O)Nc1ccc2[nH]c(=O)cc(CCN3CCC(c4c[nH]c5ccccc45)CC3)c2c1 |
| 138 to 142 °C | CCCCc1nc2c(N)nc3ccccc3c2n1CCCCNS(=O)(=O)c1cccs1 |
| 127 °C | C/C=C1\NC(=O)N(CCCC)C1=O |
| 176 °C | COc1ccc(C(=O)N[C@H]2C[C@@H](c3cc(NC(=O)Cc4cccc5ccccc45)n[nH]3)C2)cc1 |
| 156 to 158 °C | CCCCn1c(=O)n(CCC)c(=O)c2c(NC(C)=O)n[nH]c21 |
| 98 to 100 °C | CCCn1c(Cl)nc2ccc(I)cc2c1=O |
| 216 to 218 °C | CC(=O)Nc1c(C(=O)c2cc(CO)ccn2)[nH]c2cc(Cl)ccc12 |
| 154 °C | Cc1cc(C)cc(S(=O)(=O)n2c(COC(C)(C)C(=O)O)cc3nc(Cl)ccc32)c1 |
